# Results reported in patent US7998995B2 (Exelixis Patent Company LLC, priority 2006, dated 2011).
# pEC50: −log10 of the molar value.
# Tested on: T1, LXR
# T1 construct: fused on or other part: GST fused to the LBD in the FRET assay
# Assay: Measured EC50 or IC50 for LXR (LXRα and/or LXRβ; assay and subtype not given)
# Conditions: IC50 or EC50 class, subtype not specified
# Protocol: (§1) Measured EC50 or IC50 for LXR, and FXR for Compounds of the Invention
# (§2) LXR and FXR activities for various compounds of the invention are presented in the following table; those compounds with EC50 or IC50 values <10 μM for at least one of LXRα, LXRβ or FXR are considered to be active. In the following Table, IC50 or EC50 data is represented as follows: A<1 μM, B=1-10 μm, and C>10 μM.
row,Structure (SMILES),pEC50
1,"Cc1cc(-n2nc(C(C)(C)O)c(Cl)c2-c2c(Cl)cccc2Cl)ccc1-c1cccc(S(C)(=O)=O)c1 [Example 972, 2-{4-chloro-5-(2,6-dichlorophenyl)-1-[2-methyl-3′-(methylsulfonyl)biphenyl-4-yl]-1H-pyrazol-3-yl}propan-2-ol]",5.00 to 6.00
2,"O=C(NCc1cccc(Cl)c1)c1cc(C(F)(F)F)nn1-c1cc(Cl)ccc1Cl [Example 102, N-[(3-chlorophenyl)methyl]-1-(2,5-dichlorophenyl)-3-(trifluoromethyl)-1H-pyrazole-5-carboxamide]",< 5.00
3,"FC(F)(F)c1cc(COc2ccc(-c3ccccc3)cc2)n(-c2ccccc2Cl)n1 [Example 111, 5-[(biphenyl-4-yloxy)methyl]-1-(2-chlorophenyl)-3-(trifluoromethyl)-1H-pyrazole]",5.00 to 6.00
4,"O=C(O)Cc1ccc(-c2ccc(OCc3cc(C(F)(F)F)nn3-c3ccccc3Cl)cc2)cc1 [Example 98, [4′-({[1-(2-chlorophenyl)-3-(trifluoromethyl)-1H-pyrazol-5-yl]methyl}oxy)biphenyl-4-yl]acetic acid]",< 5.00
5,"O=C(NCc1cccc(C(F)(F)F)c1)c1cc(C(F)(F)F)nn1-c1cc(Cl)ccc1Cl [Example 100, 1-(2,5-dichlorophenyl)-3-(trifluoromethyl)-N-{[3-(trifluoromethyl)phenyl]methyl}-1H-pyrazole-5-carboxamide]",< 5.00
6,"CC(C)(c1ccccc1Cl)c1nc(C2CCCN2)cn1-c1ccc(-c2cccc(S(C)(=O)=O)c2)cc1 (stereo not shown) [Example 976, 2-[1-(2-Chlorophenyl)-1-methylethyl]-1-[3′-(methylsulfonyl)biphenyl-4-yl]-4-pyrrolidin-2-yl-1H-imidazole]",5.00 to 6.00
7,"CS(=O)(=O)c1cccc(-c2ccc(-n3cc(-c4ncco4)nc3-c3ccccc3Cl)c(Cl)c2)c1 [Example 1012, 2-(1-(3-chloro-3′-(methylsulfonyl)biphenyl-4-yl)-2-(2-chlorophenyl)-1H-imidazol-4-yl)oxazole]",5.00 to 6.00
8,"O=C(O)c1cc2cc(OCc3cc(C(F)(F)F)nn3-c3ccccc3Cl)ccc2[nH]1 [Example 9, 5-({[1-(2-chlorophenyl)-3-(trifluoromethyl)-1H-pyrazol-5-yl]methyl}oxy)-1H-indole-2-carboxylic acid]",< 5.00
9,"CS(=O)(=O)c1ccc(CNC(=O)c2cc(C(F)(F)F)nn2-c2cc(Cl)ccc2Cl)cc1 [Example 101, 1-(2,5-dichlorophenyl)-N-{[4-(methylsulfonyl)phenyl]methyl}-3-(trifluoromethyl)-1H-pyrazole-5-carboxamide]",< 5.00
10,"FC(F)(F)c1cc(COc2ccc(-c3ccccc3)cc2)n(-c2c(Cl)cccc2Cl)n1 [Example 924, 5-[(biphenyl-4-yloxy)methyl]-1-(2,6-dichlorophenyl)-3-(trifluoromethyl)-1H-pyrazole]",5.00 to 6.00
11,"CC(C)Oc1ccccc1-n1nc(C(F)(F)F)cc1C(=O)NCc1cccc(C(F)(F)F)c1 [Example 104, 1-{2-[(1-methylethyl)oxy]phenyl}-3-(trifluoromethyl)-N-{[3-(trifluoromethyl)phenyl]methyl}-1H-pyrazole-5-carboxamide]",< 5.00
12,"CC1(C)CN=C(c2cn(-c3ccc(-c4cccc(S(C)(=O)=O)c4)cc3)c(-c3c(Cl)cccc3Cl)n2)N1 [Example 943, 2′-(2,6-dichlorophenyl)-5,5-dimethyl-1′-[3′-(methysulfonyl)biphenyl-4-yl]-4,5-dihydro-1H,1′H-2,4′-biimidazole]",< 5.00
13,Cc1nsc(-c2cn(-c3ccc(-c4cccc(S(C)(=O)=O)c4)cc3)c(-c3ccccc3C(F)(F)F)n2)n1 [Example 1037],< 5.00
14,"O=C(OCc1ccccc1)c1ccc(OCc2cc(C(F)(F)F)nn2-c2ccccc2Cl)cc1 [Example 7, phenylmethyl 4-({[1-(2-chlorophenyl)-3-(trifluoromethyl)-1H-pyrazol-5-yl]methyl}oxy)benzoate]",< 5.00
15,"CS(=O)(=O)c1cccc(-c2ccc(-n3cc(C4(O)CCCC4)nc3-c3ccccc3Cl)cc2)c1 [Example 981, 1-(2-(2-chlorophenyl)-1-(3′-(methylsulfonyl)biphenyl-4-yl)-1H-imidazol-4-yl)cyclopentanol]",5.00 to 6.00
16,"FC(F)(F)c1cc(COc2ccc(-n3cccc3)cc2)n(-c2ccccc2Cl)n1 [Example 8, 1-(2-chlorophenyl)-5-({[4-(1H-pyrrol-1-yl)phenyl]oxy}methyl)-3-(trifluoromethyl)-1H-pyrazole]",> 6.00
17,"Cc1nnc(-c2cn(-c3ccc(-c4cccc(S(C)(=O)=O)c4)cc3)c(-c3ccccc3C(F)(F)F)n2)o1 [Example 1024, 2-methyl-5-(1-(3′-(methylsulfonyl)biphenyl-4-yl)-2-(2-(trifluoromethyl)phenyl)-1H-imidazol-4-yl)-1,3,4-oxadiazole]",> 6.00
18,"CS(=O)(=O)c1cccc(-c2ccc(-n3cc(C4CC4)nc3-c3ccccc3C(F)(F)F)cc2)c1 [Example 991, 4-cyclopropyl-1-(3′-(methylsulfonyl)biphenyl-4-yl)-2-(2-(trifluoromethyl)phenyl)-1H-imdazole]",> 6.00
19,"COC(=O)N1CCCC1c1cn(-c2ccc(-c3cccc(S(C)(=O)=O)c3)cc2)c(C(C)(C)c2ccccc2Cl)n1 (stereo not shown) [Example 977, Methyl 2-{2-[1-(2-chlorophenyl)-1-methylethyl]-1-[3′-(methylsulfonyl)biphenyl-4-yl]-1H-imidazol-4-yl}pyrrolidine-1-carboxylate]",> 6.00
20,"COc1cc(-c2ccc(-c3cccc(S(C)(=O)=O)c3)s2)n(-c2ccccc2Cl)n1 [Example 933, 1-(2-chlorophenyl)-3-(methyloxy)-5-{5-[3-(methylsulfonyl)phenyl]-2-thienyl}-1H-pyrazole]",< 5.00

# Second part, the compound after the results:
row,pEC50,Structure (SMILES)
1,> 6.00,"Cc1cc(-n2nc(C(C)(C)O)c(Cl)c2-c2c(F)cccc2Cl)ccc1-c1cccc(S(C)(=O)=O)c1 [Example 971, 2-{4-chloro-4-(2-chloro-6-fluoropehnyl)-1-[2-methyl-3′-(methylsulfonyl)biphenyl-4-yl]-1H-pyrazol-3-yl}propan-2-ol]"
2,> 6.00,"CC(C)(O)c1cc(-c2ccc(-c3cccc(S(C)(=O)=O)c3)s2)n(-c2c(F)cccc2F)n1 [Example 948, 2-[1-(2,6-difluorophenyl)-5-{5-[3-(methylsulfonyl)phenyl]-2-thienyl}-1H-pyrazol-3-yl]propan-2-ol]"
3,> 6.00,"CC(C)(O)c1cc(-c2ccc(-c3cccc(S(C)(=O)=O)c3)cc2)n(-c2c(Cl)cccc2Cl)n1 [Example 956, 2-{1-(2,6-dichlorophenyl)-5-[3′-(methylsulfonyl)biphenyl-4-yl]-1H-pyrazol-3-yl}propan-2-ol]"
4,> 6.00,"CC(C)(O)c1nn(-c2ccc(-c3cccc(S(C)(=O)=O)c3)cc2F)c(-c2c(F)cccc2Cl)c1Cl [Example 964, 2-{4-chloro-5-(2-chloro-6-fluorophenyl)-1-[3-fluoro-3′-(methysulfonyl)biphenyl-4-yl]-1H-pyrazol-3-yl}propan-2-ol]"
5,> 6.00,"CC(C)(O)c1nn(-c2c(Cl)cccc2Cl)c(-c2ccc(-c3cccc(S(C)(=O)=O)c3)cc2)c1Cl [Example 957, 2-{4-chloro-1-(2,6-dichlorophenyl)-5-[3′-(methylsulfonyl)biphenyl-4-yl]-1H-pyrazol-3-yl}propan-2-ol]"
6,> 6.00,"CS(=O)(=O)c1cccc(-c2ccc(-n3cc(-c4nnc(C(F)(F)F)o4)nc3-c3ccccc3Cl)c(Cl)c2)c1 [Example 1025, 2-(1-(3-chloro-3′-(methylsulfonyl)biphenyl-4-yl)-2-(2-chlorophenyl)-1H-imidazol-4-yl)-5-(trifluoromethyl)-1,3,4-oxadiazole]"
7,> 6.00,"CS(=O)(=O)c1cccc(-c2ccc(-n3cc(-c4ccsc4)nc3-c3ccccc3Cl)c(Cl)c2)c1 [Example 997, 1-(3-chloro-3′-(methylsulfonyl)biphenyl-4-yl)-2-(2-chlorophenyl)-4-(thiophen-3-yl)-1H-imidazole]"
8,> 6.00,"CS(=O)(=O)c1cccc(-c2ccc(-n3cc(-n4cccn4)nc3-c3c(Cl)cccc3Cl)cc2)c1 [Example 999, 1-{2-(2,6-dichlorophenyl)-1-[3′-(methylsulfonyl)biphenyl-4-yl]-1H-imidazol-4-yl}-1H-pyrazole]"
9,> 6.00,"CC1COC(c2cn(-c3ccc(-c4cccc(S(C)(=O)=O)c4)cc3Cl)c(-c3c(Cl)cccc3Cl)n2)=N1 (stereo not shown) [Example 938, 2-{1-[3-chloro-3′-(methylsulfonyl)biphenyl-4-yl]-2-(2,6-dichlorophenyl)-1H-imidazol-4-yl}-4-methyl-4,5-dihydro-1,3-oxazole]"
10,> 6.00,"CS(=O)(=O)c1cccc(-c2ccc(-n3cc(N4CCC4)nc3-c3ccccc3C(F)(F)F)cc2)c1 [Example 998, 4-(azetidin-1-yl)-1-(3′-(methylsulfonyl)biphenyl-4-yl)-2-(2-(trifluoromethyl)phenyl)-1H-imidazole]"
11,> 6.00,"CS(=O)(=O)c1cccc(-c2ccc(OCc3cc(C(F)(F)F)nn3-c3ccccc3Cl)cc2Cl)c1 [Example 911, 5-({[2-chloro-3′-(methylsulfonyl)biphenyl-4-yl]oxy}methyl)-1-(2-chlorophenyl)-3-(trifluoromethyl)-1H-pyrazole]"

# Target: T2, FXR (Homo sapiens, UniProt Q96RI1)
# T2 sequence (Q96RI1 1-472 isoform Q96RI1-2): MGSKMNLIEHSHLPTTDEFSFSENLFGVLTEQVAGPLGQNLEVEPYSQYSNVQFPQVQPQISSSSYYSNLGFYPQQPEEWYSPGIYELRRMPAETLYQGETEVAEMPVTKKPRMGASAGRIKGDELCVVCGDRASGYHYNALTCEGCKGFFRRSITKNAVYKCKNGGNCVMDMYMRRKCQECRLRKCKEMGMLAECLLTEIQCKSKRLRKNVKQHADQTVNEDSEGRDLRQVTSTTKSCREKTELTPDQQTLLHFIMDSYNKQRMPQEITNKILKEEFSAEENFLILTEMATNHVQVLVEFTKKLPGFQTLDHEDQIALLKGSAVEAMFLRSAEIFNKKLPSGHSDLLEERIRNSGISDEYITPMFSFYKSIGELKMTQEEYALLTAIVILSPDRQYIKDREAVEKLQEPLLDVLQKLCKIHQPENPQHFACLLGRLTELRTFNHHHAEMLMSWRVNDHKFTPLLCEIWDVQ
# Assay: Measured EC50 or IC50 for FXR (assay not given)
# Conditions: IC50 or EC50 class; assay not specified
# Protocol: as §1, §2
row,pEC50,Structure (SMILES)
1,5.00 to 6.00,"Cc1cc(-n2nc(C(C)(C)O)c(Cl)c2-c2c(F)cccc2Cl)ccc1-c1cccc(S(C)(=O)=O)c1 [Example 971, 2-{4-chloro-4-(2-chloro-6-fluoropehnyl)-1-[2-methyl-3′-(methylsulfonyl)biphenyl-4-yl]-1H-pyrazol-3-yl}propan-2-ol]"
2,5.00 to 6.00,"Cc1cc(-n2nc(C(C)(C)O)c(Cl)c2-c2c(Cl)cccc2Cl)ccc1-c1cccc(S(C)(=O)=O)c1 [Example 972, 2-{4-chloro-5-(2,6-dichlorophenyl)-1-[2-methyl-3′-(methylsulfonyl)biphenyl-4-yl]-1H-pyrazol-3-yl}propan-2-ol]"
3,5.00 to 6.00,"CC(C)(O)c1cc(-c2ccc(-c3cccc(S(C)(=O)=O)c3)s2)n(-c2c(F)cccc2F)n1 [Example 948, 2-[1-(2,6-difluorophenyl)-5-{5-[3-(methylsulfonyl)phenyl]-2-thienyl}-1H-pyrazol-3-yl]propan-2-ol]"
4,5.00 to 6.00,"CC(C)(O)c1cc(-c2ccc(-c3cccc(S(C)(=O)=O)c3)cc2)n(-c2c(Cl)cccc2Cl)n1 [Example 956, 2-{1-(2,6-dichlorophenyl)-5-[3′-(methylsulfonyl)biphenyl-4-yl]-1H-pyrazol-3-yl}propan-2-ol]"
5,5.00 to 6.00,"CC(C)(O)c1nn(-c2ccc(-c3cccc(S(C)(=O)=O)c3)cc2F)c(-c2c(F)cccc2Cl)c1Cl [Example 964, 2-{4-chloro-5-(2-chloro-6-fluorophenyl)-1-[3-fluoro-3′-(methysulfonyl)biphenyl-4-yl]-1H-pyrazol-3-yl}propan-2-ol]"
6,> 6.00,"CC(C)(O)c1nn(-c2c(Cl)cccc2Cl)c(-c2ccc(-c3cccc(S(C)(=O)=O)c3)cc2)c1Cl [Example 957, 2-{4-chloro-1-(2,6-dichlorophenyl)-5-[3′-(methylsulfonyl)biphenyl-4-yl]-1H-pyrazol-3-yl}propan-2-ol]"
